According to patent US7439040B2, “Protease regulator screening assay” (Novartis Vaccines and Diagnostics, Inc., priority 1996, dated 2008):
Values joined by “and” are separate entries in the source; they are usually repeats but may differ in a detail not shown here. Identical values can stand only once.

Tests used:
Type in all cases: biochemical
[1] = target: T1, HCV protease (Hepatitis C virus genotype 1a, UniProt P26664); test: HCV protease inhibitor screening assay using NS5A/5B cleavage site (pro A-NS5 substrate, anti-FLAG/HRP OD readout)
T1 construct: Peptide 4A, a co-factor of the NS3 HCV protease; made in house
T1 sequence (P26664 1027-1657): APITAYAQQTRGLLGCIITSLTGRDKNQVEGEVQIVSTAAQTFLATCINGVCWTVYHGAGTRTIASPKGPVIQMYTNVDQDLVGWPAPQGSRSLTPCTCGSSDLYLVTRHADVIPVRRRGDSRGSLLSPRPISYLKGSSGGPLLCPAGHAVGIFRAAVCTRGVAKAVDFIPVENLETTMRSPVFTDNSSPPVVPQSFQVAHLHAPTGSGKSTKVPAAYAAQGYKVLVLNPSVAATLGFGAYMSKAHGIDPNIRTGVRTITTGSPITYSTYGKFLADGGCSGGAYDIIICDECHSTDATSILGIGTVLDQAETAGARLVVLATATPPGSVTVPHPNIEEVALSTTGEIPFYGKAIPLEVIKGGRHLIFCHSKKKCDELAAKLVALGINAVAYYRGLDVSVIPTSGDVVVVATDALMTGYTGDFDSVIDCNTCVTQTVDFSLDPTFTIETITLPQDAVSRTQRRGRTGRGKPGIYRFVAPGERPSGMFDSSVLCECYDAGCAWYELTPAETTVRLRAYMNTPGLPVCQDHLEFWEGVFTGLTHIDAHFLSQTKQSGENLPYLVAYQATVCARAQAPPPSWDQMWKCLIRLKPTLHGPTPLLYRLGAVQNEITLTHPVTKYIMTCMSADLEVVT
From the text: The HCV Protease Inhibitor Screening Assay Using NS5A/5B as Cleavage Site Expression Construct and its Encoded Polypeptide
A fragment encoding HCV NS5 peptide protease target site was inserted in frame into the polylinker region of pEZZ18 so that it is connected at the C-terminal region of Protein A. The NS5 peptide protease target site includes the NS5A and NS5B cleavage site, i.e., amino acids 2420 and 2421, 7 amino acids at the N-terminal side of the cleavage site, and 8 amino acids at the C-terminal side of the cleavage site.
Another sequence fragment encoding the FLAG tag was inserted in frame at the C-terminal end of the NS5 peptide protease target site. The sequence fragment encodes three FLAG tags alternately spaced with two 4-Glycine spacers.
Microwell plates containing 96 wells were prepared by coating the wells with IgG. Then the plates were dried. The purified protein NS5 was incubated with the dry plates for 1 hour at 37° C. to allow binding of the Protein A region of the protein to the IgG in the microwells.
Protease was prepared by elution from a nickel column. Various concentrations of HCV protease were prepared. The protease was incubated with and without a known protease inhibitor, DCIC (di-chloro-iso-coumarin). The incubation was for 1 hour at room temperature. Subsequently the protease was transferred to the coated plates. […]
Diluted monoclonal anti-FLAG mouse antibodies (available from Kodak) were added to the HCV protease treated plates and incubated with the plates for 1 hour at 37° C. The plates were subsequently washed and incubated with affinity purified goat anti-mouse-HRP (horse radish peroxidase) conjugates for 1 hour at 37° C. Then the plates were washed, and incubated with a developer such as o-phenylenediamine dihydrochloride (OPD). The optical density (OD) was determined at 492 and 620 nm settings.

[2] = target: T1, HCV protease; test: NS5A/5B as substrate to screen HCV protease inhibitor candidates; conditions: control setup, pro A-NS5 substrate
Description: The substrate polypeptide, (10 μg/well) in 200 μl was added to a human IgG coated plate and incubated for one hour. The plate was washed five times with wash buffer. The inhibitor, if any, was pre-incubated (diluted to 1 uM) with HCV protease, NS4A (0.2 uM) for one hour at room temperature. Peptide 4A, a co-factor of the NS3 HCV protease was added in different concentrations to all wells containing the protease mixture (20X concentration is 4 μM). […] The final concentration of the NS4A in each well was 4 μM. The plate was washed five times with wash buffer. Mouse anti-FLAG monoclonal antibody in the amount of 200 μl (1:200d from stock solution) was added to the designated wells and incubated one hour at 37° C. The plate was washed five times with wash buffer. Affinity purified goat anti-mouse (H+L)-HRP (Fab′)2 conjugate (1:5000d) in the amount of 200 μl was added to all the reaction wells except the blank well and incubated one hour at 37° C. The plate was washed five times with wash buffer. Then the plate was developed with OPD substrate for 30 minutes at room temperature. The plate was read with a microtiter plate reader at 490/620 nm.
Using NS5A/5B as Substrate to Screen HCV Protease Inhibitor Candidates
A target polypeptide was prepared having an anchor region, a linker region, a protease target site of HCV NS5A/5B, another linker region, and a FLAG epitope tag region. […]

[3] = target: T2, NS3 HCV protease (Hepatitis C virus genotype 1a, UniProt P26664); test: HCV protease inhibitor screening assay using NS4B/5A cleavage site with co-factor peptide 4A; conditions: DCIC 1 μM, duplicates
T2 construct: Peptide 4A, a co-factor of the NS3 HCV protease; made in house
T2 sequence (P26664 1027-1657): as above
Description: The HCV Protease Inhibitor Screening Assay Using NS4B/5A Cleavage Site
Plate: Human IgG coated on HB COSTAR plate, 200 ng/well
The protease: Ni-13 (F21) diluted 1:300 in the enzyme stock buffer
The protease inhibitor: diluted to 1 mM in the enzyme stock buffer
A substrate polypeptide was prepared having an anchor region (protein A), a linker, two protease target sites of NS4B/5A, another linker, and a FLAG epitope tag. The target polypeptide was expressed in sufficient quantities to conduct the assay.
[…] The plate was washed five times with wash buffer. The inhibitor, if any, was pre-incubated (diluted to 1 uM) with HCV protease, NS4A (0.2 uM) for one hour at room temperature. Peptide 4A, a co-factor of the NS3 HCV protease was added in different concentrations to all wells containing the protease mixture (20X concentration is 4 μM). The above mixture was transferred to the plate coated with IgG-4B/5A complex and incubated overnight at room temperature (about 20° C. −25° C.). The final concentration of the NS4A in each well was 4 μM. The plate was washed five times with wash buffer. Mouse anti-FLAG monoclonal antibody in the amount of 200 μl (1:200d from stock solution) was added to the designated wells and incubated one hour at 37° C. The plate was washed five times with wash buffer. Affinity purified goat anti-mouse (H+L)-HRP (Fab′)2 conjugate (1:5000d) in the amount of 200 μl was added to all the reaction wells except the blank well and incubated one hour at 37° C. The plate was washed five times with wash buffer. Then the plate was developed with OPD substrate for 30 minutes at room temperature. The plate was read with a microtiter plate reader at 490/620 nm.

[4] = target: T1, HCV protease; test: Short incubation time, NS5A/5B substrate HCV protease inhibitor screen; conditions: control setup; duplicates; listed as control 4
Description: Using a Short Incubation Time and NS5A/5B as a Substrate to Screen HCV Protease Inhibitors
A target polypeptide was prepared having an anchor region (protein A) molecule, a linker, a protease target site of HCV NS5A/5B, another linker, and a FLAG epitope tag region. The target polypeptide was expressed in sufficient quantities to conduct the assay.
The inhibitor was pre-incubated (diluted to 1 μM) with HCV protease (0.2 μM) for 1 hour at room temperature. A solution of NS5A/5B substrate (20 μg/well) was added to the pre-incubated protease and protease inhibitor mixture, and the total mixture was incubated for 15 minutes. The mixture was transferred to a human IgG coated plate and incubated for 1 hour at 37° C. The plate was washed five times with wash buffer.
Two hundred microliter of mouse anti-FLAG monoclonal antibody (1:200d from stock solution) was added to the designated wells and incubated for 1 hour at 37° C. The plate was washed five times with wash buffer. Affinity purified goat anti-mouse (H+L)-HRPO (Fab′)2 conjugate (1:5000d) in the amount of 200 μl was added to all the reaction wells except the blank well and incubate 1 hour at 37° C. The plate was washed five times with wash buffer. The plate was developed with OPD substrate for 30 minutes at room temperature. The plate was read with a microtiter plate reader at 490/620 nm.

[5] = protease, substrate and inhibitor preincubated overnight, pools 1:100 D

Structure (SMILES): O=c1oc(Cl)c(Cl)c2ccccc12 [DCIC, di-chloro-iso-coumarin]
- OD ([1]; preincubation of protease, substrate and inhibitor overnight, pro A-NS5 10 μg/ml, protease 1:100 D): 1.578
- OD ([1]; preincubation of protease, substrate and inhibitor overnight, pro A-NS5 10 μg/ml, protease 1:200 D): 1.458
- OD ([1]; preincubation of protease, substrate and inhibitor overnight, pro A-NS5 10 μg/ml, protease 1:500 D): 1.083
- OD, Exp. 1 [1, 5]: 1.235
- OD, Exp. 2 [1, 5]: 0.768
- OD ([1]; substrate and protease incubated for 2 hours, pro A-NS5 10 μg/ml, protease 1:100 D): 1.137
- OD ([1]; substrate and protease incubated for 2 hours, pro A-NS5 10 μg/ml, protease 1:200 D): 1.235
- OD ([1]; substrate and protease incubated for 2 hours, pro A-NS5 10 μg/ml, protease 1:500 D): 0.503
- OD ([1]; substrate and protease incubated for 2 hours, proA-NS5 2 μg/ml, protease 1:100 D): 0.627
- OD ([1]; substrate and protease incubated for 2 hours, proA-NS5 2 μg/ml, protease 1:200 D): 0.631
- OD ([1]; substrate and protease incubated for 2 hours, proA-NS5 2 μg/ml, protease 1:500 D): 0.545
- OD ([1]; substrate and protease incubated overnight, pro A-NS5 10 μg/ml, protease 1:100 D): 0.899
- OD ([1]; substrate and protease incubated overnight, pro A-NS5 10 μg/ml, protease 1:200 D): 0.998
- OD ([1]; substrate and protease incubated overnight, pro A-NS5 10 μg/ml, protease 1:500 D): 0.887
- OD ([1]; substrate and protease incubated overnight, proA-NS5 2 μg/ml, protease 1:100 D): 0.449
- OD ([1]; substrate and protease incubated overnight, proA-NS5 2 μg/ml, protease 1:200 D): 0.467
- OD ([1]; substrate and protease incubated overnight, proA-NS5 2 μg/ml, protease 1:500 D): 0.328
- OD w/ DMSO 1 μl ([2]; with DMSO 1 μl): 2.596
- OD w/o DMSO ([2]; without DMSO): 2.915
- OD of the reaction product ([3]; substrate 4B/5A 5 μg/well, 10X peptide 4A): 1.435 and 1.328
- OD of the reaction product ([3]; substrate 4B/5A 5 μg/well, 20X peptide 4A): 1.374 and 1.373
- OD of the reaction product ([3]; substrate 4B/5A 5 μg/well, no peptide 4A): 1.400 and 1.491
- OD of the reaction product ([3]; substrate 4B/5A 10 μg/well, 10X peptide 4A): 1.729 and 1.715
- OD of the reaction product ([3]; substrate 4B/5A 10 μg/well, 20X peptide 4A): 1.584 and 1.690
- OD of the reaction product ([3]; substrate 4B/5A 10 μg/well, no peptide 4A): 1.769 and 1.686
- OD, 15 minutes preincubation [4]: 1.563 and 1.590
- OD, 1 hour preincubation [4]: 1.991 and 2.152
